Reference: patent US20100285959A1, “HERBICIDAL MIXTURES” (priority 2006, published 2010)

Experiments:
redroot pigweed (AMARE) = assay: Test 24 growth chamber, postemergence; type: in vivo, Amaranthus retroflexus; conditions: 17 DAA
Description: (§1) Plants were treated postemergence at the 2-4 leaf growth stage, and each treatment was replicated three times. […] Plants were watered as needed. […] Results for barley and wheat are the means across varieties of the three replicates, and results for the weeds are the means of the three replicates.

kochia (KCHSC) = assay: Test 4 field trial, postemergence; type: in vivo, Kochia scoparia
Description: (§2) A field trial was conducted to evaluate the effects of mixtures of Compound 2 with commercial herbicides on spring wheat (TRZAS, Triticum aestivum L.) and several weed species. Wheat seeds (cv. ‘AC Intrepid’) were planted in late spring season, 3.8 cm deep in a loam soil having 2.7% organic matter and a pH of 7. Plots were 6 m long by 2.5 m wide. The field was managed using no-till practices. The plots were arranged in a randomized complete block design with each treatment being replicated four times. Treatments were applied postemergence 25 days after planting using a backpack sprayer delivering a spray volume of 55 L/ha using a pressure of 276 kPa. […] Compound 2 and clodinafop treatments, alone and in combination, also included a surfactant. Weed species present in the experimental plots in sufficient quantity to be evaluated included wild oat (AVEFA, Avena fatua L.), common lambsquarters (CHEAL, Chenopodium album L.), kochia (KCHSC, Kochia scoparia (L.) Schrad.), wild buckwheat (POLCO, Polygonum convolvulus L.), Russian thistle (SASKR, Salsola kali L. ssp. ruthenica (Iljin) Soo), and field pennycress (THLAR, Thlaspi arvense L.). […] Common lambsquarters was evaluated only at 14 days after application. […] Results are the means of the four replicates.

Russian thistle (SASKR) = assay: Test 24 growth chamber, postemergence; type: in vivo, Salsola kali; conditions: 17 DAA
Description: as §1

velvetleaf (ABUTH) [1] = assay: Test 16 greenhouse, post- and preemergence; conditions: 15 DAA
wild chamomile (MATCH) = assay: Test 24 growth chamber, postemergence; type: in vivo, Matricaria chamomilla; conditions: 17 DAA
Description: as §1

velvetleaf (ABUTH) [2] = assay: Test 18 greenhouse, post- and preemergence; conditions: 15 DAA
winter barley (HORVW) = assay: Test 24 growth chamber, postemergence; type: in vivo, Hordeum vulgare; conditions: 17 DAA
Description: as §1

mixed hardwoods (MXDSP) = assay: Test 13 field trial, postemergence, brush weeds; type: in vivo, Nyssa sylvatica, Acer rubrum, Liquidambar styraciflua; conditions: 56 DAA; g a.i./ha: Cpd 2 250; Fosamine-ammonium 6700
Description: Plots were established in non-crop land and were 6.1 m long by 3.0 m wide. […] Treatments were applied postemergence to the brush weeds using a backpack sprayer delivering a spray volume of 468 L/ha using a pressure of 241 kPa. […] All treatments also included a surfactant. […] Results are the means of the three replicates.

wild buckwheat (POLCO) = assay: Test 4 field trial, postemergence; type: in vivo, Polygonum convolvulus
Description: as §2

winter wheat (TRZAW) = assay: Test 24 growth chamber, postemergence; type: in vivo, Triticum aestivum; conditions: 17 DAA
Description: as §1

barnyardgrass (ECHCG) = assay: Test 32 greenhouse, simulated flooded rice culture; type: in vivo, Echinochloa crus-galli; design: scale not given here; conditions: postemergence to flood, 21 DAA
Description: A greenhouse trial was conducted to evaluate the effects of Compound 1 and isoxadifen-ethyl at different ratios in simulated flooded rice culture. Plastic pots (11-cm diameter) were partially filled with non-sterilized Tama silt loam soil containing a 15:57:28 ratio of sand, silt and clay and 2.9% organic matter. Seeds of Heteranthera limosa (ducksalad; HETLI), Cyperus difformis (smallflower umbrella sedge; CYPDI), one stand of Echinochloa crus-galli (barnyardgrass; ECHCG), and one stand of four rice seedlings (Oryza sativa cv. ‘M202’; ORYSA) were planted into a single 11-cm diameter pot for each rate and mixture of rates. To obtain this planting, C. difformis and H. limosa seeds were planted separately on the surface soil layer at particular locations within each pot. Water levels were brought to a puddled condition above the soil surface directly after planting. E. crus-galli and rice seeds were planted in cavity trays in the silt loam soil and transplanted at the 1.5 and 2.0 leaf stage, respectively. E. crus-galli and rice plants were transplanted to about 2-cm depth by transferring plugs from the cavity trays. Plantings were sequential so that these plant species all reached the 2.0- to 2.5-leaf stage in the 11-cm diameter pot at time of treatment. Plantings were established and maintained in a greenhouse with day and night temperatures of about 29.5 and 26.7° C. respectively; supplemental balanced lighting was provided to maintain a 16-hour photoperiod. Pots were fertilized periodically with a 200 ppm solution of commercial Scotts Peters® Professional® General Purpose 20-20-20 Water Soluble Fertilizer, amended to 10 ppm with a commercial iron-chelate micronutrient fertilizer. The solution was supplied at time of watering via a liquid fertilizer injector.
At treatment time, test pots were flooded to 3 cm above the soil surface and maintained at that water depth for the duration of the test. Chemical treatments were formulated in acetone and applied directly to the paddy water (i.e., postemergence to flood). Make-up volumes of acetone were added to ensure that all pots were treated with a consistent volume. Test pots were maintained in the greenhouse. A randomized complete block design was employed. Five replicates of each treatment, alone and in mixture, were used. Each species was visually evaluated for treatment effects by comparing those treated to untreated controls and rated for plant response after 21 days.

[3] = 14 DAA, Cpd 2 30 g a.i./ha alone or with clodinafop 56 or fenoxaprop 90
[4] = 35 DAA, Cpd 2 30 g a.i./ha alone or with clodinafop 56 or fenoxaprop 90

SMILES: COC(=O)c1nc(C2CC2)nc(N)c1Cl [Compound 2, methyl 6-amino-5-chloro-2-cyclopropyl-4-pyrimidinecarboxylate]
- AMARE Obs (scale 0 to 100) (redroot pigweed (AMARE); Cpd 2 4 g a.i./ha): 63
- AMARE Obs (scale 0 to 100) (redroot pigweed (AMARE); Cpd 2 8 g a.i./ha): 67
- AMARE Obs (scale 0 to 100) (redroot pigweed (AMARE); Cpd 2 16 g a.i./ha): 75
- KCHSC Obs (kochia (KCHSC); [3]): 95
- KCHSC Obs (kochia (KCHSC); [4]): 99
- KCHSC Obs (kochia (KCHSC); 35 DAA, Cpd 2 60 g a.i./ha alone): 96
- SASKR Obs (scale 0 to 100) (Russian thistle (SASKR); Cpd 2 4 g a.i./ha): 63
- SASKR Obs (scale 0 to 100) (Russian thistle (SASKR); Cpd 2 8 g a.i./ha): 75
- SASKR Obs (scale 0 to 100) (Russian thistle (SASKR); Cpd 2 16 g a.i./ha): 75
- Obs response, scale 0 to 100 (velvetleaf (ABUTH) [1]; Postemergence, 15 g a.i./ha): 33
- Obs response, scale 0 to 100 (velvetleaf (ABUTH) [1]; Postemergence, 30 g a.i./ha): 38
- Obs response, scale 0 to 100 (velvetleaf (ABUTH) [1]; Postemergence, 45 g a.i./ha): 61
- Obs response, scale 0 to 100 (velvetleaf (ABUTH) [1]; Preemergence, 15 g a.i./ha): 23
- Obs response, scale 0 to 100 (velvetleaf (ABUTH) [1]; Preemergence, 30 g a.i./ha): 38
- Obs response, scale 0 to 100 (velvetleaf (ABUTH) [1]; Preemergence, 45 g a.i./ha): 42
- MATCH Obs (scale 0 to 100) (wild chamomile (MATCH); Cpd 2 4 g a.i./ha): 55
- MATCH Obs (scale 0 to 100) (wild chamomile (MATCH); Cpd 2 8 g a.i./ha): 65
- MATCH Obs (scale 0 to 100) (wild chamomile (MATCH); Cpd 2 16 g a.i./ha): 72
- Postemergence ABUTH Obs (velvetleaf (ABUTH) [2]; alone at 15 g a.i./ha): 39
- Preemergence ABUTH Obs (velvetleaf (ABUTH) [2]; alone at 15 g a.i./ha): 16
- Postemergence ABUTH Obs (velvetleaf (ABUTH) [2]; alone at 30 g a.i./ha): 58
- Preemergence ABUTH Obs (velvetleaf (ABUTH) [2]; alone at 30 g a.i./ha): 26
- Postemergence ABUTH Obs (velvetleaf (ABUTH) [2]; alone at 45 g a.i./ha): 67
- Preemergence ABUTH Obs (velvetleaf (ABUTH) [2]; alone at 45 g a.i./ha): 28
- HORVW Obs (scale 0 to 100) (winter barley (HORVW); Cpd 2 4 g a.i./ha): 19
- HORVW Obs (scale 0 to 100) (winter barley (HORVW); Cpd 2 8 g a.i./ha): 28
- HORVW Obs (scale 0 to 100) (winter barley (HORVW); Cpd 2 16 g a.i./ha): 37
- MXDSP Obs (mixed hardwoods (MXDSP)): 45
- POLCO Obs (wild buckwheat (POLCO); [3]): 61
- POLCO Obs (wild buckwheat (POLCO); 14 DAA, Cpd 2 60 g a.i./ha alone or with clodinafop 56 or fenoxaprop 90): 63
- POLCO Obs (wild buckwheat (POLCO); [4]): 51
- POLCO Obs (wild buckwheat (POLCO); 35 DAA, Cpd 2 60 g a.i./ha alone or with clodinafop 56 or fenoxaprop 90): 55
- TRZAW Obs (scale 0 to 100) (winter wheat (TRZAW); Cpd 2 4 g a.i./ha): 21
- TRZAW Obs (scale 0 to 100) (winter wheat (TRZAW); Cpd 2 8 g a.i./ha): 33
- TRZAW Obs (scale 0 to 100) (winter wheat (TRZAW); Cpd 2 16 g a.i./ha): 39

SMILES: Nc1nc(C2CC2)nc(C(=O)O)c1Cl [Compound 1, 6-amino-5-chloro-2-cyclopropyl-4-pyrimidinecarboxylic acid]
- ECHCG Obs (barnyardgrass (ECHCG); Cpd 1 31.25 g a.i./ha): 10
- ECHCG Obs (barnyardgrass (ECHCG); Cpd 1 62.5 g a.i./ha): 19
- ECHCG Obs (barnyardgrass (ECHCG); Cpd 1 125 g a.i./ha): 37
